Values of other authors, collected in US11718832B2, “Method to reduce oncogenic potential of induced pluripotent stem cells from aged donors” (MEMORIAL SLOAN-KETTERING CANCER CENTER, priority 2014, dated 2023).

System: GSS
Conditions: literature

Structure (SMILES)	Inhibition of GSS
[N-]=[N+]=CC(=O)CC[C@H](N)C(=O)O [6-Diazo-5-oxo-L-norleucine]	inhibit GSS
[N-]=[N+]=CC(=O)OC[C@H](N)C(=O)O [azaserine]	inhibit GSS
CCCCS(=N)(=O)CCC(N)C(=O)O (stereo not drawn) [buthionine sulfoximine]	inhibit GSS
